Data published in US7189710B2, “C2-fluoro pyrrolo [2,1−c][1,4]benzodiazepine dimers” (Council of Scientific and Industrial Research, priority 2004, dated 2007).

How the values were obtained:
MCF7 (Breast) = assay: In vitro one dose primary anticancer assay; type: cell-based, human; conditions: one dose at 10^−4 molar concentration
Protocol: (§1) Biological Activity: In vitro biological activity studies were carried out at National Cancer Institute (USA).

NCI-H460 (Lung) = assay: In vitro one dose primary anticancer assay; type: cell-based, human; conditions: one dose at 10^−4 molar concentration
Protocol: as §1

SF-268 (CNS) = assay: In vitro one dose primary anticancer assay; type: cell-based, human; conditions: one dose at 10^−4 molar concentration
Protocol: as §1

[1] = test system: sixty human tumour cells derived from nine cancer types; assay: NCI in vitro cytotoxicity screen, sixty human tumour cell lines, SRB assay, 48 h (mean graph midpoints); type: cell-based; conditions: 48 h continuous drug exposure, mean over human tumour cell lines; for Log10LC5O mean graph midpoint (MG_MID): 50% cell death (−50% growth); for GI50: 50% cell growth inhibition, read-out: Log10 GI50 mean graph midpoint (MG_MID) (converted); for Log10 TGI mean graph midpoint (MG_MID): total cell growth inhibition (0% growth)
Protocol: as §1
(§2) Cytotoxicity: Compounds IXa and IXc were evaluated for in vitro against sixty human tumour cells derived from nine cancer types (leukemia, non-small-cell lung, colon, CNS, melanoma, ovarian, prostate, and breast cancer). For each compound, dose response curves against each cell line were measured at a minimum of five concentrations at 10 fold dilutions. A protocol of 48 h continuous drug exposure was used and a sulforhodamine B (SRB) protein assay was used to estimate cell viability or growth. The concentration causing 50% cell growth inhibition (GI50), total cell growth inhibition (TGI, 0% growth) and 50% cell death (LC50, −50% growth) compared with the control was calculated.

[2] = test system: non-small-cell lung cancer cell lines; assay: NCI in vitro cytotoxicity, SRB assay, average per cancer type; type: cell-based; conditions: Homo sapiens; average of six to eight different cancer cell lines; read-out: Log GI50 (inhibitory concentration), non-small-cell lung (converted)
Protocol: as §1, §2
(§3) Each cancer type represent the average of six to eight different cancer cell lines.

renal cancer cell lines = assay: as above; type: cell-based; conditions: Homo sapiens; average of six to eight different cancer cell lines; read-out: Log GI50 (inhibitory concentration), renal (converted)
Protocol: as §1, §2, §3

breast cancer cell lines = assay: as above; type: cell-based; conditions: Homo sapiens; average of six to eight different cancer cell lines; read-out: Log GI50 (inhibitory concentration), breast (converted)
Protocol: as §1, §2, §3

[3] = test system: ovarian cancer cell lines; assay: as above; type: cell-based; conditions: Homo sapiens; average of six to eight different cancer cell lines; read-out: Log GI50 (inhibitory concentration), ovarian (converted)
Protocol: as §1, §2, §3

CNS cancer cell lines = assay: as above; type: cell-based; conditions: Homo sapiens; average of six to eight different cancer cell lines; read-out: Log GI50 (inhibitory concentration), CNS (converted)
Protocol: as §1, §2, §3

[4] = test system: leukemia cancer cell lines; assay: as above; type: cell-based; conditions: Homo sapiens; average of six to eight different cancer cell lines; read-out: Log GI50 (inhibitory concentration), leukemia (converted)
Protocol: as §1, §2, §3

[5] = test system: prostate cancer cell lines; assay: as above; type: cell-based; conditions: Homo sapiens; average of six to eight different cancer cell lines; read-out: Log GI50 (inhibitory concentration), prostate (converted)
Protocol: as §1, §2, §3

colon cancer cell lines = assay: as above; type: cell-based; conditions: Homo sapiens; average of six to eight different cancer cell lines; read-out: Log GI50 (inhibitory concentration), colon (converted)
Protocol: as §1, §2, §3

[6] = test system: melanoma cancer cell lines; assay: as above; type: cell-based; conditions: Homo sapiens; average of six to eight different cancer cell lines; read-out: Log GI50 (inhibitory concentration), melanoma (converted)
Protocol: as §1, §2, §3

Structure (SMILES)	Growth percentages (Breast) MCF7 (MCF7 (Breast))	Growth percentages (Lung) NCI-H460 (NCI-H460 (Lung))	Growth percentages (CNS) SF-268 (SF-268 (CNS))	Log10LC5O mean graph midpoint (MG_MID) [1]	GI50 [1]	Log10 TGI mean graph midpoint (MG_MID) [1]	GI50 [2]	GI50 (renal cancer cell lines)	GI50 (breast cancer cell lines)	GI50 [3]	GI50 (CNS cancer cell lines)	GI50 [4]	GI50 [5]	GI50 (colon cancer cell lines)	GI50 [6]
COc1cc2c(cc1OCCCOc1cc3c(cc1OC)C(=O)N1C[C@@H](F)C[C@H]1C=N3)N=C[C@@H]1C[C@H](F)CN1C2=O [IXa]	0%	0%	0%	−4.31	6170 nM	−4.75	5520 nM	4840 nM	3240 nM	4900 nM	2860 nM	2150 nM	6610 nM	5190 nM	3240 nM
COc1cc2c(cc1OCCCCCOc1cc3c(cc1OC)C(=O)N1C[C@@H](F)C[C@H]1C=N3)N=C[C@@H]1C[C@H](F)CN1C2=O [IXc]	0%	0%	0%	−4.87	72.4 nM	−6.27	48.1 nM	32.2 nM	58.3 nM	240 nM	23.7 nM	16.1 nM	37.2 nM	86.3 nM	50 nM
